Measurements taken from patent US4405638A, “2-Methoxyphenyl esters of N-substituted amino acids, a process for their preparation and pharmaceutical compositions containing them” (Sigma-Tau Industrie Farmaceutiche Riunite S.p.A, priority 1981, dated 1983).

Tests used:
[1] = Acute toxicity, LD50 by the Weil method, intraperitoneal administration in the mouse; conditions: in vivo, ip, N = 4 K = 4, confidential limits given
Source text: LD50 of the compounds of formula (I), evaluated by the Weil method ("Tables for convenient calculation of median effective dose (LD50 or ED50) and instructions in their use", Biometrics, 249-253, 1952), by intraperitoneal administration in the mouse.
LD50 and confidential limits, mg/kg i.p., of the
compounds of formula I. Weil method, N = 4 K = 4

bronchial secretion = experiment: Expectorating activity: amount of bronchial secretion in rabbits (method of Perry et al.); assay type: in vivo, rabbit; conditions: male rabbits, 20 to 40 mg
Method: The experimentation was carried out on male rabbits, weighting 2-3 kg, narcotized with ethyl urethane, according to the method described by Perry et al. (J. Pharm. Exp. Ther. 73, 65 (1941)). Each compound of formula (I) was administered to 5 rabbits in doses ranging from 20 to 40 mg, 1 hour after the incannulation. The control group (8 rabbits) was given only water. The amount of secretion was determined 1, 2 and 4 hours after the administration.
Effects of compounds of formula (I) on the bronchial secretion
Percentage variations (± standard error) of the
bronchial secretion, in comparison with the
basic values, in the following times after the […]

bronchial tree = experiment: Bronchosecretogogic activity: sodium fluoresceine method in the rat (Mawatari); assay type: in vivo; conditions: 500 mg/kg i.p.
Method: The bronchosecretogogic activity of compound (2), i.e. 2-methoxyphenyl N-[2-(2-thenoylthio)propionyl]aminoacetate, was tested according to the method of the sodium fluoresceine in the rat, as described by Mawatari (Experimental Studies on the expectorant action of several drugs, Kagoshima Daigaku Igaku Zasshi 27, 561 (1976)), in comparison with S-carboxymethyl-cysteine (CMC) and N-(2-mercaptopropionyl)glycine (MPG).
Removal of the sodium fluoresceine from the bronchial
tree (percentage increase versus the controls).

cough = experiment: Antitussive activity: cough induced by citric acid aerosol in Guinea pigs; assay type: in vivo
Method: This activity was tested on Guinea pigs, in which cough was induced by citric acid aerosol, in comparison with codeine. Compound (2) was administered per os and intraperiotoneally.
Antitussive activity. Cough induced in Guinea pigs

esterase = experiment: In vitro enzymatic hydrolysis of compound (2); assay type: in vitro ADME
Method: "In vitro" and "in vivo" tests were carried out.

[2] = In vivo pharmacokinetics in the rat
Source text: After administration of equimolecular doses of N-[2-(2-thenoylthio)propionyl]glycine and of the corresponding 2-methoxyphenyl ester (compound (2)), higher lung concentrations of N-(2-mercaptopropionyl)glycine and thiophene-2-carboxylic acid are found in the case of compound (2) administration.

[3] = equimolecular doses, versus N-[2-(2-thenoylthio)propionyl]glycine

Structure (SMILES)	LD50 [1] [mg/kg]	Percentage variations (± standard error) of the bronchial secretion, in comparison with the basic values (bronchial secretion; 1h after the administration)	Percentage variations (± standard error) of the bronchial secretion, in comparison with the basic values (bronchial secretion; 2h after the administration)	Percentage variations (± standard error) of the bronchial secretion, in comparison with the basic values (bronchial secretion; 4h after the administration)	further results
COc1ccccc1OC(=O)CNC(C)=O [(1), 2-methoxyphenyl ester of N-acetlyglycine]	1010	+1,3 ± 0,02%	-1,4 ± 0,03%	+2,3 ± 0,07%	–
COc1ccccc1OC(=O)C(C)NC(C)=O (stereo not drawn) [(3), 2-methoxyphenyl ester of N-acetylalanine]	1150	+0,8 ± 0,04%	+1,2 ± 0,04%	+2,7 ± 0,08%	–
COc1ccccc1OC(=O)C(C)NC(=O)C(C)SC(=O)c1cccs1 (stereo not drawn) [(4), 2-methoxyphenyl ester of N-[2-(2-thenoylthio)propionyl]alanine]	960	+1,5 ± 0,05%	+1,9 ± 0,08%	+2,5 ± 0,09%	–
COc1ccccc1OC(=O)C(CS)NC(C)=O (stereo not drawn) [(5), 2-methoxyphenyl ester of N-acetylcysteine]	1270	+0,9 ± 0,05%	+2,1 ± 0,01%	+3,8 ± 0,09%	–
COc1ccccc1OC(=O)C(CSC(C)=O)NC(C)=O (stereo not drawn) [(6), 2-methoxyphenyl ester of N,S-diacetylcysteine]	1580	+0,4 ± 0,05%	+2,1 ± 0,05%	+1,9 ± 0,04%	–
COc1ccccc1OC(=O)C(CSCC(=O)O)NC(C)=O (stereo not drawn) [(7), 2-methoxyphenyl ester of N-acetyl-S-carboxymethylcysteine]	1250	+0,5 ± 0,03%	+0,7 ± 0,07%	+1,9 ± 0,09%	–
COc1ccccc1OC(=O)C(CS)NC(=O)C(C)SC(=O)c1cccs1 (stereo not drawn) [(8), 2-methoxyphenyl ester of N-[2-(2-thenoylthio)propionyl]cysteine]	980	+1,8 ± 0,04%	+1,7 ± 0,09%	+2,7 ± 0,05%	–
COc1ccccc1OC(=O)C(CSC(C)=O)NC(=O)C(C)SC(=O)c1cccs1 (stereo not drawn) [(9), 2-methoxyphenyl ester of N-[2-(2-thenoylthio)propionyl]-S-acetylcysteine]	1230	+1,9 ± 0,03%	+1,5 ± 0,04%	+2,4 ± 0,04%	–
COc1ccccc1OC(=O)C(CSCC(=O)O)NC(=O)C(C)SC(=O)c1cccs1 (stereo not drawn) [(10), 2-methoxyphenyl ester of N-[2-(2-thenoylthio)propionyl]-S-carboxymehtylcysteine]	1340	+0,8 ± 0,02%	+1,3 ± 0,04%	+2,1 ± 0,03%	–
N[C@@H](CSCC(=O)O)C(=O)O [CMC, S-carboxymethyl-cysteine, reference compound]	–	–	–	–	Removal of the sodium fluoresceine from the bronchial tree (percentage increase versus the controls) (bronchial tree): 33.4%
COc1ccccc1OC(=O)CNC(=O)C(C)SC(=O)c1cccs1 (stereo not drawn) [Compound (2), 2-methoxyphenyl N-[2-(2-thenoylthio)propionyl]aminoacetate]	1240	+0,3 ± 0,01%	+0,7 ± 0,03%	+1,4 ± 0,05%	Removal of the sodium fluoresceine from the bronchial tree (percentage increase versus the controls) (bronchial tree): 123.5%; bronchosecretogogic activity, comparison with CMC and MPG (bronchial tree): much higher than CMC and MPG; % inhibition of the cough (cough; 100 mg/kg i.p.): 95.8%; % inhibition of the cough (cough; 500 mg/kg per os): 82.3%; enzymatic hydrolysis products (esterase): enzymetically hydrolized giving N-(2-mercaptopropionyl)glycine, thiophene-2-carboxylic acid and guaiacol; tissue with highest esterase activity (esterase): highest esterase activity is showed by the lung; pulmonary tropism [2]: high pulmonary tropism; lung concentrations of N-(2-mercaptopropionyl)glycine [2, 3]: higher; lung concentrations of thiophene-2-carboxylic acid [2, 3]: higher; absorption ([2]; oral administration): mostly absorbed as such after oral administration
CC(S)C(=O)NCC(=O)O (stereo not drawn) [MPG, N-(2-mercaptopropionyl)glycine, reference compound]	–	–	–	–	Removal of the sodium fluoresceine from the bronchial tree (percentage increase versus the controls) (bronchial tree): 21.9%
COc1ccc2c3c1O[C@H]1[C@@H](O)C=C[C@H]4[C@@H](C2)N(C)CC[C@@]341 [codeine, reference compound]	–	–	–	–	% inhibition of the cough (cough; 12.5 mg/kg i.p.): 90.2%; % inhibition of the cough (cough; 25 mg/kg per os): 75.6%
